Read-outs that look alike come from different tables or passages of the source.
Assays:
[1] = injection of ASC-J9 for 15 weeks, mice; cited from earlier work
[2] = tested on: primary liver tumor of AR+/y mice; assay: Primary liver tumor cells inoculated subcutaneously into nude mice, tumor growth; type: in vivo, mouse; conditions: I.P. 50 mg/kg/mice twice per week, 17 weeks
Description: (§1) FIG. 6. Targeting AR as therapeutic strategy. (A) Establishment of AR siRNA stable transfectants of human SKAR3 cells. Scrambled siRNA (SKAR3-sc, lane 3) and different siRNA targeting AR (SKAR3-si1; SKAR3-si2; SKAR3-si3) stable transfectants derived from SKAR3 cells. LNCaP and SK-Hep1 cells served as positive and negative controls of AR expression, respectively. (B) AR transactivation activity was used to examine the knockdown efficiency of AR siRNA in the SKAR3 cells. The SKAR3-si1 cells were used to compare with SKAR3-sc cells and treated with EtOH and 1 nM DHT for 24 hrs after ARE(4)-luciferase transfection. The readings were normalized with the read out of pRL-TK cotransfection and pooled three individual experiments. (C) AR siRNA effect on SKAR3 cell growth. SKAR3-sc and SKAR3-si1 cells were treated with EtOH or 1 nM DHT, then observed cell growth by counting cells on different days. (D) ASC-J9 effect on SKAR3 and SKAR7 cells. Cells were plated and cultured with EtOH, 10 nM DHT and 5 μM ASC-J9 for different days and examined cell growth using MTT assay. (E) ASC-J9 effect on SKAR3 cell apoptosis and proliferation. Cells were cultured with 10 nM DHT, or 5 μM ASC-J9 for 24 hrs, then detached, stained with PI, assayed immediately by flowcytometry to observe cell apoptosis. […] Six injection sites from 3 mice were measured and pooled. […]

SKAR3 cells [3] = assay: ASC-J9 effect on SKAR3 cell growth (MTT assay); type: cell-based, human; conditions: 5 μM ASC-J9, in the presence of 10 nM DHT
Description: as §1

[4] = tested on: primary tumor cells isolated from AR+/y mice livers; assay: Growth of primary cells from DEN-induced AR+/y liver tumors (MTT assay); type: cell-based, mouse
Description: (E) Cell growth analysis using MTT assay on the cells derived from AR^+/y primary liver tumor culture in 55-weeks DEN-induced AR^+/y mice. Cells within 3 passages of subculture were used, treated with ethanol (EtOH) or DHT at different concentrations (1 and 10 nM). Cell growth was monitored for a maximum of 8 days and harvested for MTT assay. Values from background readings at 650 nm were subtracted and pooled all MTT assay results from 5 independent experiments.
(F) Primary cells were derived from 55-weeks DEN-induced AR^+/y liver tumors and cultured ex vivo. Cells were treated with ASC-J9 or cotreated with 10 nM DHT for 8 days, then harvested for MTT assay. The result represents three independent experiments.
The hepatic cells were isolated from 55-weeks-old DEN-treated mice and performed primary hepatic cell culture as described previously(30). […] The cells were maintained in DMEM (Invitrogen) with 10% Fetal Calf Serum (FCS), 1% Glutamine; and 1% penicillin/streptomycin. The cell growth assays were performed according to a previous study(32) using cell counting assay or MTT (3-(4,5-Dimethylthiazol-2-yl)-2,5-diphenyltetrazolium bromide) assay(33).

SKAR7 cells = assay: ASC-J9 effect on SKAR7 cell growth (MTT assay); type: cell-based, human; conditions: 5 μM ASC-J9, in the presence of 10 nM DHT
Description: as §1

SKAR3 cells [5] = assay: SKAR3 cell apoptosis, PI staining and flowcytometry; type: cell-based, human; conditions: 5 μM ASC-J9, 24 hrs, absence or presence of 10 nM DHT
Description: as §1

SKAR3 cells [6] = conditions: 1 nM DHT with H2O2 treatment, 24 hrs
Description: (B) SKpar and SKAR3 cells were treated with 200 μM H2O2 or 1 nM DHT for 24 hrs and measured ROS level.

SKAR3 cells [7] = conditions: 10 nM DHT
Description: (§2) FIG. 3. […] (A) Apoptotic cells in SKpar and SKAR3 cells. […] (B) Androgen and AR effect on anchorage-dependent cell growth. […] (C) Anchorage-independent cell growth of SKpar and SKAR3 cells. Cell clusters greater than 50 cells were counted as a positive clone.

SKAR3 cells [8] = conditions: SKAR3-EtOH vs SKAR3-DHT, 10 nM DHT, 4 days
Description: as §2
(§3) The hepatic cells were isolated from 55-weeks-old DEN-treated mice and performed primary hepatic cell culture as described previously(30). The cells were plated onto 100-mm BioCoat mouse collagen I coated dishes (BD Biosciences) at a density of 5×10^5 viable cells/dish in low glucose Dulbecco's modified Eagle's medium (Invitrogen) containing 1% bovine serum albumin, 0.8 mM oleate, […] insulin (4 milliunits/ml), […] dexamethasone, 100 units of penicillin, and 1% of streptomycin/ml. Human HCC cells were obtained from Dr. Y. S. Jou in Acdemia Secienica, Taiwan published previously(31). The cells were maintained in DMEM (Invitrogen) with 10% Fetal Calf Serum (FCS), 1% Glutamine; and 1% penicillin/streptomycin.

SKpar cells = conditions: SKpar-EtOH vs SKpar-DHT, 10 nM DHT, 4 days
Description: as §2, §3

p53 = conditions: 10 nM DHT for 2, 4, and 8 hrs, time-dependent
Description: (A) p53 protein expression of SKpar and SKAR3 cells. We treated SKpar and SKAR3 cells with 10 nM DHT for 2, 4, and 8 hrs and measured protein abundance by immunoblotting assay using p53 specific antibody. GAPDH served as loading control.
The p53 expression was analyzed using immunoblotting assay(32) to semi-quantitate p53 protein abundance in the hepatic tumor and HCC cells. […] Protein abundance was measured by Western blotting as previously described(38) using specific antibodies against AR (Pharmingen), p53 (Cell Signaling), Gadd45, . . . , and Bcl-2 (Santa Cruz).

[9] = tested on: superoxide dismutase 2 (SOD2); conditions: 10 nM DHT
Description: (§4) FIG. 10. Examination of ROS reducing gene mRNA expression using SKpar and SKAR cells, (A, B) We plated cells and treated as indicated for 24 hrs. We examined Thioreducin-2 (A) and SOD2 (B) mRNA using Q-PCR as described in Methods.
(§5) The mRNA expression of MnSOD (SOD2), Thioreducin-2, and Gadd45 was determined using quantitative RT-PCR (Q-PCR) as previous described(37), and primer sequences are as follows.

thioreducin-2 = conditions: 10 nM DHT
Description: as §4, §5

AR transactivation = assay: ARE(4)-luciferase promoter assay of AR transactivation in SKAR3 sublines; type: cell-based, human; conditions: 1 nM DHT
Description: as §1

AR [10] = assay: AR expression in SKAR3 cells stably transfected with AR-siRNA; type: cell-based, human; conditions: SKAR3-si1, 2 or 3 vs SKAR3-sc
Description: as §1

AR [11] = conditions: MCF-7 cells, retrovirus-based vector; cited from earlier work
SKAR3 cells [12] = assay: AR siRNA effect on SKAR3 cell growth (SKAR3-sc vs SKAR3-si1); type: cell-based, human; conditions: 1 nM DHT
Description: as §1

In the case of `COc1ccc(C=CC(=O)C=C(O)C=Cc2ccc(OC)c(OC)c2)cc1OC` [ASC-J9, 5-hydroxy-1,7-bis(3,4-dimethoxyphenyl)-1,4,6-heptatrien-3-one], the serum testosterone [1] is listed as “little change in serum testosterone”, the “sexual function and fertility” value [1] is listed as “retained normal sexual function and fertility” and the tumor growth [2] is listed as “suppression of tumor growth”. For the same compound, the cell growth (SKAR3 cells [3]) was “suppression of cell growth”, the “primary tumor cell growth” value ([4]; 5 μM ASC-J9, absence or presence of 10 nM DHT, 8 days) was “suppressed the primary tumor cell growth” and the cell growth (SKAR7 cells) was “suppression of cell growth”. The cell apoptosis (SKAR3 cells [5]) was “increased cell apoptosis”.

For `C[C@]12CCC(=O)C[C@@H]1CC[C@@H]1[C@@H]2CC[C@]2(C)[C@@H](O)CC[C@@H]12` [DHT, 5α-dihydrotestosterone], the ROS level (SKAR3 cells [6]) was “further enhanced”, the “AR-promoted anchorage-independent cell growth” value (SKAR3 cells [7]) was “little influence” and the cell growth (SKAR3 cells [8]) was “further increased cell growth”. For the same compound, the cell growth (SKpar cells) was “little effect”, the p53 protein expression (p53) was “down-regulation of p53” and the “SOD2 mRNA expression” value ([9]; SKAR3 cells treated with H2O2) was “decreased”. The “H2O2-induced SOD2 mRNA expression” value ([9]; SKpar cells) was “failed to suppress”, the “thioreducin-2 mRNA expression” value (thioreducin-2; SKAR3 cells treated with H2O2) was “decreased” and the “H2O2-induced thioreducin-2 mRNA expression” value (thioreducin-2; SKpar cells) was “failed to suppress”. The “AR transactivation induced by DHT” value (AR transactivation; SKAR3-sc cells) was “could induce substantial AR transactivation” and the “cell growth (cell numbers)” value ([4]; DHT 1 and 10 nM, maximum of 8 days) was “cell numbers increased in a dose-dependent manner”.

In the case of “AR-siRNA: retrovirus-based vector that expresses AR-siRNA; stable SKAR3 sublines SKAR3-si1, 2 or 3 (guide GGGCCCCTGGATGGATAGCTACCTCGAGGTAGCTATCCATCCAGGGGCC)”, the AR expression (AR [10]) is given as “substantially knocked down”, the AR knockdown (AR [11]) is given as “effectively knocked down the AR” and the “AR-mediated transactivation under AR-siRNA” value (AR transactivation; SKAR3-si1 vs SKAR3-sc, 24 hrs) is given as “could induce substantial AR transactivation in SKAR3-sc, but not SKAR3-si1 cells”. The DHT-induced cell growth (SKAR3 cells [12]) was “suppression of DHT-induced cell growth”.
